What was measured:
[1] = Catalytic catalase activity assay using oxygen electrodes; type: biochemical; conditions: total oxygen evolved
[2] = Reaction with hydrogen peroxide (spectrophotometric or cyclic voltammetric monitoring); type: biochemical; conditions: spectrophotometric or electrochemical (cyclic voltammetric) techniques
[3] = same conditions (pH=7.4 and 21° C.); cited from earlier work
[4] = test system: astroglial cells exposed to supernatant of HIV-infected macrophages; assay: Ultrastructural studies (electron microscopy) of astroglial cells; type: cell-based, human; conditions: co-incubation, AZT 50 μM; for pro-apoptotic effect of supernatant of HIV-infected M/M on astroglial cell ultrastructure: M40401 10-100 μM, L-NAME 100 μM
Method: (§1) The astrocytic cell line Lipari was derived from a patient who presented a large right front-temporal mass (astrocytoma), and grown as previously described (Mollace, V., Colasanti, M., Rodinò, P., Lauro, G. M. & Nisticò, G. (1994b). Biochem. Biophys. Res. Commun. 203, 87-92.). Cells were expanded and cultured by seeding them in 25cm plastic flasks at a density of 0.7×10^6 cells/flask in complete medium, and incubated at 37° C. in humidified air containing 5% CO2.
(§2) A monocytotropic strain of HIV-1, named HIV-1Ba-L was used in all experiments. M/M cultures were exposed to HIV and virus expansion was performed. After 2 hours, virus was removed by washing cultures with warm medium and then cultures of M/M infected by HIV were carried out for further 13-15 days.
(§3) The supernatant of HIV-infected M/M was collected 13 days after virus infection and then incubated for 3 hours with cultured astrocytes. The supernatant of Mock-infected M/M was used as control treatment. […] HIV-p24 antigen production in supernatants of M/M was assesed using a commercially available ELISA Kit (HIV-p24 gag Abbott Lab, Pomezia, Italy).
Cells for electron microscopy were fixed in 2.5% glutaraldehyde in PBS pH7.4 at 4° C. and then washed for 2 hours in PBS and post fixed in osmium tetroxide 1,33% for 2 hours at 4° C. After several washes in PBS, the cells were dehydrated in graded alcohol, transferred into toluene, and embedded in Epon 812 resin. The resin was allowed to polymerize in a dry oven at 60° C. for 24 hours. Thin sections were cut with a glass knife Reichert microtome, stained with Touloidine Blue and examined on Axioscope microscope. Ultra-thin sections were cut on a Reichert microtome using a diamond knife, stained with uranyl-acetate-lead-hydroxide and evaluated and photographed on a Philips electron microscope CM 10 (Philips).

[5] = test system: Lipari astroglial cell line incubated with supernatant of HIV-1 infected macrophages; assay: FACS analysis of apoptotic cell death of astrocytes exposed to supernatant of HIV-infected macrophages; type: cell-based, human; conditions: M40401 10-100 μM, L-NAME 100 μM, AZT 50 μM
Method: as §1, §2
The supernatant of HIV-infected M/M was collected 13 days after virus infection and then incubated for 3 hours with cultured astrocytes. The supernatant of Mock-infected M/M was used as control treatment. […]
The astrocytic cells either treated or untreated with supernatants of HIV-infected macrophages were gently detached from plastic 8 days after exposure. […] Propidium iodide-stained cells were analysed with a FACScan Flow Cytometer; fluorescence was measured between 565 and 605nm. The data were acquired and analysed by the Lysis II program.

[6] = test system: astroglial cells incubated with supernatants of HIV-infected macrophages; assay: Malondialdehyde (MDA) in astroglial cells incubated with supernatants of HIV-infected macrophages; type: cell-based, human; conditions: M40401 100 μM, L-NAME 100 μM, AZT 50 μM, MDA in nmol g-1
Method: as §1, §2, §3

Row | Compound | catalytic catalase activity with H2O2 [1] | stoichiometric reaction with H2O2 [2] | reaction with hydrogen peroxide [3] | pro-apoptotic effect of supernatant of HIV-infected M/M on astroglial cell ultrastructure [4] | apoptotic cell death of astroglial cells as evaluated by FACS analysis [5] | MDA overproduction (lipid peroxydation) [6] | pro-apoptotic effect of HIV-infected macrophages on astroglial cell ultrastructure ([4]; FIG. 5, M40401 100 μM)
1 | [Cl-].[Cl-].[Mn+2].c1cc2nc(c1)CN[C@@H]1CCCC[C@H]1NCCN[C@@H]1CCCC[C@H]1NC2 [M40403] | no catalytic activity is observed | no stoichiometric reaction is observed | do not react |  |  |  | 
2 | COC(=O)[C@@H](N)CCCNC(=N)N[N+](=O)[O-] [L-NAME] |  |  |  | failed to inhibit | failed to modify | failed to antagonize | 
3 | Cc1cn([C@H]2C[C@H](N=[N+]=[N-])[C@@H](CO)O2)c(=O)[nH]c1=O [AZT] |  |  |  | failed to inhibit |  | failed to antagonize | failed to inhibit

Reference: patent publication US20020072512A1, “Method of preventing and treating HIV-mediated central nervous system damage” (priority 2000, published 2002)
